# Results taken from publication PMC6081875 (EJNMMI Research, 2018).
# Legend:
# Type in all cases: in vivo, human
# [1] = Blood time-activity curve from venous blood samples (gamma counter, bi-exponential fit); settings: blood samples 30 min, 80 min, 24, 48, 72 h p. i.; median of n = 5 patients per therapy
# Procedure: (§1) Data for dosimetry were acquired during a routine 4-day in-patient stay following the radiopharmaceutical injection, in conjunction with standard clinical examinations. All patients received a 15-min one-bed abdominal SPECT scan and a 20-min whole-body planar scintigraphy at 24, 48, and 72 h post-injection (p. i.) on a dual-headed Symbia T2 SPECT/CT (Siemens Medical Solutions, Erlangen, Germany). Counts were detected for the photopeak window of 208 keV (width 15%) by the usage of a medium-energy low-penetration collimator. Two additional scatter windows were measured at 170 keV (width 15%) and 240 keV (width 10%). A low-dose AC-CT was acquired at the first image acquisition session for anatomical correlation and attenuation correction during quantitative SPECT reconstruction. For the determination of the absorbed dose to the bone marrow from the activity circulating in the blood, five venous blood samples were drawn from the site contralateral to injection at 30 and 80 min p. i. and 24, 48, and 72 h p. i..
# [11, 13]. […] To derive the patient-specific blood TAC, 1 ml of blood of each sample was pipetted into a test tube and measured within a Cobra Gamma Counter (Packard Instrument Company, Inc., Meriden, CT), which has been previously calibrated via five 1-ml test samples of known activity concentration. […]
# [2] = Whole-body effective half-life from sequential whole-body planar images (mono-exponential fit); settings: mono-exponential fit, 24, 48, 72 h p. i.
# Procedure: as §1
# For each patient, all acquired whole-body planar images were corrected for scatter and attenuation on a pixel basis via a dedicated MATLAB routine (Fig. 1); for the correction of scatter, the TEW method was applied, as for the quantitative SPECT images. For the attenuation correction, a linear projection of μ values along the ventral axis of the patient was created from the diagnostic CT image of the pre-therapeutic Ga-68 PET/CT scan, which covered nearly the whole patient body from the middle of the head to approximately the knees. Therefore, a conversion between the Hounsfield units (HUs) in the diagnostic CT and the μ values at 208 keV was established by acquiring a CT scan of a Gammex tissue phantom (Gammex 467; Gammex, Inc., Middleton, WI) with 16 tissue rods of known composition and thus known attenuation characteristics. The μ values of all rods were plotted against the measured HUs, and a bilinear fit model (range 1: HU = (− 688;0); range 2: HU = (0;1127)) was applied to the whole data set. This calibration curve allows for the assignment of μ values to a continuous range of HUs. The lower arms and legs as well as a part of the head were not included in the PET/CT data, as the arms are usually positioned above the head during the PET/CT scan and as the PET/CT scan is usually not acquired over the entire patient length. By contrast, the arms, legs, and head are fully included in the whole-body planar images, and an appropriate μ value has to be defined for each segment (Fig. 1). Thus, mean μ values derived from three patients with PET/CT acquisitions of the head, legs, and arms were assigned to the missing segments. Therefore, all segments—the part visible on the PET/CT and the missing parts of the head, arms, and legs—were delineated on the co-registered whole-body planar images (delineation and rigid body co-registration via PMOD Version 3.609). The resulting map of the regions of interest (ROI) was saved, with each ROI segment being characterised via a defined value. This ROI map was then loaded by a self-designed MATLAB routine, which assigned the defined μ value to each segment according to the ROI number. Afterwards, the resulting whole-body integral μ-map was blurred via a Gaussian filter with a width approximating an average resolution of the gamma camera (geometric resolution of full width at half maximum of 11 mm at 10 cm). Pixel-wise attenuation correction was finally performed in conjunction with geometric averaging of both planar views (conjugate view method).
# Calibration of whole-body planar images was performed via the corresponding quantitative abdominal SPECT by using the fact that ideally the total activity ASPECT within the quantitative SPECT should be correlated to the number of counts per second (cps) xplanar in the planar abdominal counterpart multiplied by an appropriate calibration factor: […]
# bone marrow = assay: Bone marrow dosimetry, hybrid protocol (HP): sequential abdominal quantitative SPECT scaled with a single whole-body planar image
# Procedure: The proposed hybrid protocol (HP) uses a single whole-body image and sequential single-bed quantitative SPECT acquisitions of the abdomen to determine the ROB TAC, instead of deriving the ROB TAC from sequential whole-body planar imaging.
# First, the abdominal effective decay constant λSPECT was derived via a mono-exponential fit to the total activity in the SPECT scans 24, 48, and 72 h post-therapy. Especially, all organs and all tumours were included in the fitting of the TAC, as it was the case for the determination of A~WB from the reference protocol. […] The mono-exponential SPECT-based abdominal TAC was then scaled with a chosen base point. This base point is defined via the whole-body activity AWB(t^∗) of a single whole-body planar image acquired at an arbitrary time point t^∗∈ 24, 48, or 72 h post-therapy. The resulting pseudo-whole-body TAC AWB, pseudo(t) is intended to serve as an estimate of the reference-protocol-based whole-body TAC (Eq. (7.1)) and can be further used to determine a pseudo-whole-body time-integrated activity A~WB,pseudo (Eq. (7.2)).
# 7.1 AWB,pseudot=AWB,pseudot^∗∙exp−λSPECT∙t−t^∗, 7.2 A~WB,pseudo=∫t=0∞AWB,pseudot^′dt^′=AWBt^∗∙expλSPECT∙t^∗/λSPECT=AWBt^∗∙expλSPECT∙t^∗∙T1/2,SPECT/ln2.
# Based on the hybrid model given in Eqs. (7.1) and (7.2), the bone marrow absorbed dose from the ROB can be estimated by Eqs. (4.1) and (4.2). In this work, we investigated a combination of the sequential abdominal SPECT with the whole-body planar images at 24, 48, or 72 h p. i., where each whole-body planar image was individually calibrated via the quantitative SPECT at the corresponding time point (Fig. 2). These different hybrid protocols were further denoted as HP24, HP48, and HP72. The agreement of the bone marrow absorbed doses from the ROB, as determined via the HP and the RP, was assessed. Therefore, the percentage deviation between absorbed dose estimates (PDdose; Eq. (8)) was calculated, and a statistical test for correlation was performed (MATLAB Pearson correlation analysis).
# Furthermore, the same analysis was performed regarding the total bone marrow absorbed dose estimates composed of all available constituents: the ROB (including tumours), the explicitly analysed organs, and the contribution of the blood activity.
# [3] = median of n = 5 patients per therapy
structure (smiles),measurement,setting,value
"C[C@@H](O)[C@H](NC(=O)[C@@H]1CSSC[C@H](NC(=O)[C@@H](Cc2ccccc2)NC(=O)CN2CCN(CC(=O)O)CCN(CC(=O)O)CCN(CC(=O)O)CC2)C(=O)N[C@@H](Cc2ccc(O)cc2)C(=O)N[C@H](Cc2c[nH]c3ccccc23)C(=O)N[C@@H](CCCCN)C(=O)N[C@@H]([C@@H](C)O)C(=O)N1)C(=O)O [Lu-177-Octreotate, Lu-177-[DOTA^0,Tyr^3]-Octreotate, metal not drawn]",effective half-life for the slow phase of the bi-exponential fit to the blood time-activity measurements,[1],25 h
same,"T1/2, WB, planar-based whole-body effective half-life",[2]; [3],43 h
same,"T1/2, WB, planar-based whole-body effective half-life",[2]; patient P1 (NET),40 h
same,"T1/2, WB, planar-based whole-body effective half-life",[2]; patient P2 (NET),43 h
same,"T1/2, WB, planar-based whole-body effective half-life",[2]; patient P3 (NET),43 h
same,"T1/2, WB, planar-based whole-body effective half-life",[2]; patient P4 (NET),52 h
same,"T1/2, WB, planar-based whole-body effective half-life",[2]; patient P5 (NET),62 h
same,"DBM ← total HP72, total bone marrow absorbed dose","bone marrow; whole-body planar image 72 h p. i., patient P1 (NET, 7654 MBq)",12.1 mGy/GBq
"O=C(O)CC[C@H](NC(=O)N[C@@H](CCCCNC(=O)[C@H](Cc1ccc2ccccc2c1)NC(=O)[C@H]1CC[C@H](CNC(=O)CN2CCN(CC(=O)O)CCN(CC(=O)O)CCN(CC(=O)O)CC2)CC1)C(=O)O)C(=O)O [Lu-177-PSMA-617, Lu-177-DKFZ-PSMA-617, metal not drawn]",effective half-life for the slow phase of the bi-exponential fit to the blood time-activity measurements,[1],14 h
same,"T1/2, WB, planar-based whole-body effective half-life",[2]; [3],31 h
same,"T1/2, WB, planar-based whole-body effective half-life",[2]; patient P6 (mCRPC),22 h
same,"T1/2, WB, planar-based whole-body effective half-life",[2]; patient P7 (mCRPC),31 h
same,"T1/2, WB, planar-based whole-body effective half-life",[2]; patient P8 (mCRPC),65 h
same,"T1/2, WB, planar-based whole-body effective half-life",[2]; patient P9 (mCRPC),39 h
same,"T1/2, WB, planar-based whole-body effective half-life",[2]; patient P10 (mCRPC),29 h
same,"DBM ← total HP24, total bone marrow absorbed dose","bone marrow; single whole-body planar image 24 h p. i., median of n = 5 patients per therapy",11.3 mGy/GBq
same,"DBM ← total HP48, total bone marrow absorbed dose","bone marrow; single whole-body planar image 48 h p. i., median of n = 5 patients per therapy",9.6 mGy/GBq
same,"DBM ← total HP72, total bone marrow absorbed dose","bone marrow; single whole-body planar image 72 h p. i., median of n = 5 patients per therapy",10.1 mGy/GBq
same,"DBM ← total HP24, total bone marrow absorbed dose","bone marrow; whole-body planar image 24 h p. i., patient P6 (mCRPC, 3718 MBq)",11.3 mGy/GBq
same,"DBM ← total HP24, total bone marrow absorbed dose","bone marrow; whole-body planar image 24 h p. i., patient P7 (mCRPC, 3743 MBq)",8.1 mGy/GBq
same,"DBM ← total HP24, total bone marrow absorbed dose","bone marrow; whole-body planar image 24 h p. i., patient P8 (mCRPC, 3745 MBq)",17.1 mGy/GBq
same,"DBM ← total HP24, total bone marrow absorbed dose","bone marrow; whole-body planar image 24 h p. i., patient P9 (mCRPC, 3752 MBq)",13.5 mGy/GBq
same,"DBM ← total HP24, total bone marrow absorbed dose","bone marrow; whole-body planar image 24 h p. i., patient P10 (mCRPC, 3700 MBq)",10.0 mGy/GBq
same,"DBM ← total HP48, total bone marrow absorbed dose","bone marrow; whole-body planar image 48 h p. i., patient P6 (mCRPC, 3718 MBq)",9.6 mGy/GBq
same,"DBM ← total HP48, total bone marrow absorbed dose","bone marrow; whole-body planar image 48 h p. i., patient P7 (mCRPC, 3743 MBq)",6.7 mGy/GBq
same,"DBM ← total HP48, total bone marrow absorbed dose","bone marrow; whole-body planar image 48 h p. i., patient P8 (mCRPC, 3745 MBq)",17.1 mGy/GBq
same,"DBM ← total HP48, total bone marrow absorbed dose","bone marrow; whole-body planar image 48 h p. i., patient P9 (mCRPC, 3752 MBq)",13.6 mGy/GBq
same,"DBM ← total HP48, total bone marrow absorbed dose","bone marrow; whole-body planar image 48 h p. i., patient P10 (mCRPC, 3700 MBq)",8.1 mGy/GBq
same,"DBM ← total HP72, total bone marrow absorbed dose","bone marrow; whole-body planar image 72 h p. i., patient P6 (mCRPC, 3718 MBq)",10.1 mGy/GBq
same,"DBM ← total HP72, total bone marrow absorbed dose","bone marrow; whole-body planar image 72 h p. i., patient P7 (mCRPC, 3743 MBq)",7.0 mGy/GBq
same,"DBM ← total HP72, total bone marrow absorbed dose","bone marrow; whole-body planar image 72 h p. i., patient P8 (mCRPC, 3745 MBq)",16.8 mGy/GBq
same,"DBM ← total HP72, total bone marrow absorbed dose","bone marrow; whole-body planar image 72 h p. i., patient P9 (mCRPC, 3752 MBq)",15.1 mGy/GBq
same,"DBM ← total HP72, total bone marrow absorbed dose","bone marrow; whole-body planar image 72 h p. i., patient P10 (mCRPC, 3700 MBq)",8.5 mGy/GBq
